Experimental data taken from PMC6704710, “Preclinical evaluation of 3D185, a novel potent inhibitor of FGFR1/2/3 and CSF-1R, in FGFR-dependent and macrophage-dominant cancer models” (Journal of Experimental & Clinical Cancer Research : CR, 2019).

Legend:
Experiment in all cases: Eurofins kinase panel
Format in all cases: biochemical
Conditions in all cases: read-out: Inhibition rate (%)
MRCKβ(h) = target: T1, MRCKβ(h) (Homo sapiens, UniProt Q9Y5S2)
T1 construct: purchased Eurofins (KinaseProfiler)
T1 sequence (Q9Y5S2 whole entry): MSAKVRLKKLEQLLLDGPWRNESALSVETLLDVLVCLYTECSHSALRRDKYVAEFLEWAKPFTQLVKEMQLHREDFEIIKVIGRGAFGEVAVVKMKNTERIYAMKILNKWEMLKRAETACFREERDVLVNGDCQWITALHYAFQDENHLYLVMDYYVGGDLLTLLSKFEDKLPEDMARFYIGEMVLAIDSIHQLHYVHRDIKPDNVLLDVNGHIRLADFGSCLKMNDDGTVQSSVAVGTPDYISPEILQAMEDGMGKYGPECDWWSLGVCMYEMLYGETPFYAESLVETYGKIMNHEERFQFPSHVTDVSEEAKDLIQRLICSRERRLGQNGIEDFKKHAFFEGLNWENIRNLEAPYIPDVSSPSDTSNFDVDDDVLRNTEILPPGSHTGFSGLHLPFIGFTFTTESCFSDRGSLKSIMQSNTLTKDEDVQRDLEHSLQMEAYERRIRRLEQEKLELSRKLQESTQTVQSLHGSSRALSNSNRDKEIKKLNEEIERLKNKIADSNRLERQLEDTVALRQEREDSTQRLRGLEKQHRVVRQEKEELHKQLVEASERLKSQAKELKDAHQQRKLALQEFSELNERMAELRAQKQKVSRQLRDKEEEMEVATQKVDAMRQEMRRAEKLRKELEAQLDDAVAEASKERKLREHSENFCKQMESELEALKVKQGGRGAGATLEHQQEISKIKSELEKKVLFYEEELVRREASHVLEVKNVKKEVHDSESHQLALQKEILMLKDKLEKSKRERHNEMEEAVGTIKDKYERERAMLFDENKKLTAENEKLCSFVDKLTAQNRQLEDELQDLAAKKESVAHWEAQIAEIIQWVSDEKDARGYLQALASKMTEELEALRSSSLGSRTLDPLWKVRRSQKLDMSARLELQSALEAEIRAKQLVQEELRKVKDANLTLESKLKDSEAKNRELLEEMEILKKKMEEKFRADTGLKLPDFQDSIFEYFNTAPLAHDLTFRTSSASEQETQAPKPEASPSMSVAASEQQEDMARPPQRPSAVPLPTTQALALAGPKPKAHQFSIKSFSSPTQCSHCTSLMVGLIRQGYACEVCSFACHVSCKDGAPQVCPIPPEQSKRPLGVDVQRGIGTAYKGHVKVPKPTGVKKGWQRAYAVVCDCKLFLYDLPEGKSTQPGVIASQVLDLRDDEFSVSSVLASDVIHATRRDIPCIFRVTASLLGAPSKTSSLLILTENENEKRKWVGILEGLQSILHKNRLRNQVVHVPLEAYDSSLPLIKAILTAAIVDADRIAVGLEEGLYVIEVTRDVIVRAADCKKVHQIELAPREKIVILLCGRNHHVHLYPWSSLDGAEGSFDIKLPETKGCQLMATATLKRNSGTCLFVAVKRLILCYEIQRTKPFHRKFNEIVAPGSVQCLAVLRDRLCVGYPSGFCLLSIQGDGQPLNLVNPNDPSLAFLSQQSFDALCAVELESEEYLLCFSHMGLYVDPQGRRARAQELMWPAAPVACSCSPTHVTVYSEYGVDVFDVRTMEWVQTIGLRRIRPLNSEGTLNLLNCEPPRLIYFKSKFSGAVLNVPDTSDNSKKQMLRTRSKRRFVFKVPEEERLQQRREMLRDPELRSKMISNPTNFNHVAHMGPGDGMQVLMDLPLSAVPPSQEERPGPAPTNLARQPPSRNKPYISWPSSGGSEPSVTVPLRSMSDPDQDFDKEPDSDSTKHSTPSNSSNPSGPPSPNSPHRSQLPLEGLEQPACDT

TTK(h) = target: T2, TTK(h) (Homo sapiens, UniProt P33981)
T2 construct: purchased Eurofins (KinaseProfiler)
T2 sequence (P33981 1-857): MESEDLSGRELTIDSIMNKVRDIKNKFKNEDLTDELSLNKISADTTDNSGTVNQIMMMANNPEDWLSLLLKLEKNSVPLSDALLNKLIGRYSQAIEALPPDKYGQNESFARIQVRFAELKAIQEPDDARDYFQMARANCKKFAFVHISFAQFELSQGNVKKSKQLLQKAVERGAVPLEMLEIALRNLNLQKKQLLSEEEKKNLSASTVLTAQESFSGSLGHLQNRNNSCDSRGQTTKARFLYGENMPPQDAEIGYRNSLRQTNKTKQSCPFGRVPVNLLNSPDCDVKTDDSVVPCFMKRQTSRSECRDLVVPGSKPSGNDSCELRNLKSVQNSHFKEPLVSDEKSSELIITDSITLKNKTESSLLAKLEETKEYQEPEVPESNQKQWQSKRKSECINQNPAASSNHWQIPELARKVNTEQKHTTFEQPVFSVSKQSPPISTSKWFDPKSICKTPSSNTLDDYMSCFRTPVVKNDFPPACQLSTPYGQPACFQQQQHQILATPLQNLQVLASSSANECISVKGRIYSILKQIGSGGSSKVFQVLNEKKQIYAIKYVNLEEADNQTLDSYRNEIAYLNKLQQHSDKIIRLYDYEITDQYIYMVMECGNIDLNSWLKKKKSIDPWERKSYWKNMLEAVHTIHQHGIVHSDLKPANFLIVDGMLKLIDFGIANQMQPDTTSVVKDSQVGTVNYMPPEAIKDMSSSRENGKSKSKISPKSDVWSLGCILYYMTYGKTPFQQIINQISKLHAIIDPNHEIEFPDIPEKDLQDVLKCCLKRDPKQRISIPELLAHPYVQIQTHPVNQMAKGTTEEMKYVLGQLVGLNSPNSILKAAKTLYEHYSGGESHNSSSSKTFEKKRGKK

MRCKα(h) = target: T3, MRCKα(h) (Homo sapiens, UniProt Q5VT25)
T3 construct: purchased Eurofins (KinaseProfiler)
T3 sequence (Q5VT25 whole entry): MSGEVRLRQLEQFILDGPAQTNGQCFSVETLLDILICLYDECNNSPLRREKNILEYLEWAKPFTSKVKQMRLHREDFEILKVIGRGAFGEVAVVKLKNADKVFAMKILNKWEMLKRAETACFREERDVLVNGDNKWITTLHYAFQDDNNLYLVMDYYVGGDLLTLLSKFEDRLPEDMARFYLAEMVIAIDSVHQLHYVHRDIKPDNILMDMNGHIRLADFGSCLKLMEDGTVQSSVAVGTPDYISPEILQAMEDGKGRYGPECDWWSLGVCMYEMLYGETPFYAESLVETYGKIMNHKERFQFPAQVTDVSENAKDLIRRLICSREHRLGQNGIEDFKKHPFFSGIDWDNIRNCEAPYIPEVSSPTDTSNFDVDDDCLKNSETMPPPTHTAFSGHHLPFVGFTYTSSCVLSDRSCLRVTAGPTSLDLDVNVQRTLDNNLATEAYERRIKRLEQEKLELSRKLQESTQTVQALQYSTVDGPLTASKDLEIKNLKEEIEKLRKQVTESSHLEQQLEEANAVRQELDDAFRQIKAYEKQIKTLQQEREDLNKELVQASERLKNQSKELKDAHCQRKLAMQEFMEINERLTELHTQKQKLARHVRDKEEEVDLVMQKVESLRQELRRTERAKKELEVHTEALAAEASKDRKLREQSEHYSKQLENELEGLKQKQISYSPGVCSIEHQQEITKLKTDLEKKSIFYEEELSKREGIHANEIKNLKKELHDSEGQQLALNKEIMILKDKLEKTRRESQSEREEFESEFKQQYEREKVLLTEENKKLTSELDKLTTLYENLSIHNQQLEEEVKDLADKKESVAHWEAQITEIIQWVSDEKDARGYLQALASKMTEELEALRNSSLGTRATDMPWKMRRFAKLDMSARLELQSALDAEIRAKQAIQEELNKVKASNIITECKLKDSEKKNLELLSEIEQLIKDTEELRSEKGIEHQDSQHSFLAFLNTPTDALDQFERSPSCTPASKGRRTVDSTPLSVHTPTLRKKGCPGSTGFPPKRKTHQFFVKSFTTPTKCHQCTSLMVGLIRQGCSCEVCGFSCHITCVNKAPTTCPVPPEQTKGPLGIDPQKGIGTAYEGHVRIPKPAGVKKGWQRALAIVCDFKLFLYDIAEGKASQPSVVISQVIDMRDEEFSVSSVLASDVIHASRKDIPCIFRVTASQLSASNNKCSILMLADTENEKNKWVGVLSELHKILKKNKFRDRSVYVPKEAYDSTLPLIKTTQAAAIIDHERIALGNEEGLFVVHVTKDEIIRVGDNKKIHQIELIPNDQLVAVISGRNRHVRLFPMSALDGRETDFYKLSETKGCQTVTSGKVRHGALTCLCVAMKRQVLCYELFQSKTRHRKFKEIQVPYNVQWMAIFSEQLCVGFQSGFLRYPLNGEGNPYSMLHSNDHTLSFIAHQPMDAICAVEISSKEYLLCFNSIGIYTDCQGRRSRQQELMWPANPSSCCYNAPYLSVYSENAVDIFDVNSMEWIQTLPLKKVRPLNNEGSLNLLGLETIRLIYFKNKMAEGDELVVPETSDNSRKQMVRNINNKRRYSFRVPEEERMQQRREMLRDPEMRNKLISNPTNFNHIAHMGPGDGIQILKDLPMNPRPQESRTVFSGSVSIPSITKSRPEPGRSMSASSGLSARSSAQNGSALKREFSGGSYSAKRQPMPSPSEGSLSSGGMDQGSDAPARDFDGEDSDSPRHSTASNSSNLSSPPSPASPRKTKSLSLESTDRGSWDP

IRAK4(h) = target: T4, IRAK4(h) (Homo sapiens, UniProt Q9NWZ3)
T4 construct: purchased Eurofins (KinaseProfiler)
T4 sequence (Q9NWZ3 1-460): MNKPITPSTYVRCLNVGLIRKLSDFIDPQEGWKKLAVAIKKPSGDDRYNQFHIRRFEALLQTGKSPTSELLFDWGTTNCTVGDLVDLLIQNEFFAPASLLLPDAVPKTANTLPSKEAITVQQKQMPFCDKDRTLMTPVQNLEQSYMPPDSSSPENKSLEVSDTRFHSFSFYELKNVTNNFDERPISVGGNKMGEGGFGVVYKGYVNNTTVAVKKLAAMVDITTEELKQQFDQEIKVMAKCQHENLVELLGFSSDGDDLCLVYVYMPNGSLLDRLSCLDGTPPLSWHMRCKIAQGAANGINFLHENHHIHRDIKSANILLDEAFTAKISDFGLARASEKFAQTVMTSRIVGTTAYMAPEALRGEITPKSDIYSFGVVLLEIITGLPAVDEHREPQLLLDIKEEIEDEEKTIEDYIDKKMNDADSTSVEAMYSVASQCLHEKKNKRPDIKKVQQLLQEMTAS

IGF-1R(h), activated = target: T5, IGF-1R(h), activated (Homo sapiens, UniProt P08069)
T5 construct: purchased Eurofins (KinaseProfiler)
T5 sequence (P08069 31-1367): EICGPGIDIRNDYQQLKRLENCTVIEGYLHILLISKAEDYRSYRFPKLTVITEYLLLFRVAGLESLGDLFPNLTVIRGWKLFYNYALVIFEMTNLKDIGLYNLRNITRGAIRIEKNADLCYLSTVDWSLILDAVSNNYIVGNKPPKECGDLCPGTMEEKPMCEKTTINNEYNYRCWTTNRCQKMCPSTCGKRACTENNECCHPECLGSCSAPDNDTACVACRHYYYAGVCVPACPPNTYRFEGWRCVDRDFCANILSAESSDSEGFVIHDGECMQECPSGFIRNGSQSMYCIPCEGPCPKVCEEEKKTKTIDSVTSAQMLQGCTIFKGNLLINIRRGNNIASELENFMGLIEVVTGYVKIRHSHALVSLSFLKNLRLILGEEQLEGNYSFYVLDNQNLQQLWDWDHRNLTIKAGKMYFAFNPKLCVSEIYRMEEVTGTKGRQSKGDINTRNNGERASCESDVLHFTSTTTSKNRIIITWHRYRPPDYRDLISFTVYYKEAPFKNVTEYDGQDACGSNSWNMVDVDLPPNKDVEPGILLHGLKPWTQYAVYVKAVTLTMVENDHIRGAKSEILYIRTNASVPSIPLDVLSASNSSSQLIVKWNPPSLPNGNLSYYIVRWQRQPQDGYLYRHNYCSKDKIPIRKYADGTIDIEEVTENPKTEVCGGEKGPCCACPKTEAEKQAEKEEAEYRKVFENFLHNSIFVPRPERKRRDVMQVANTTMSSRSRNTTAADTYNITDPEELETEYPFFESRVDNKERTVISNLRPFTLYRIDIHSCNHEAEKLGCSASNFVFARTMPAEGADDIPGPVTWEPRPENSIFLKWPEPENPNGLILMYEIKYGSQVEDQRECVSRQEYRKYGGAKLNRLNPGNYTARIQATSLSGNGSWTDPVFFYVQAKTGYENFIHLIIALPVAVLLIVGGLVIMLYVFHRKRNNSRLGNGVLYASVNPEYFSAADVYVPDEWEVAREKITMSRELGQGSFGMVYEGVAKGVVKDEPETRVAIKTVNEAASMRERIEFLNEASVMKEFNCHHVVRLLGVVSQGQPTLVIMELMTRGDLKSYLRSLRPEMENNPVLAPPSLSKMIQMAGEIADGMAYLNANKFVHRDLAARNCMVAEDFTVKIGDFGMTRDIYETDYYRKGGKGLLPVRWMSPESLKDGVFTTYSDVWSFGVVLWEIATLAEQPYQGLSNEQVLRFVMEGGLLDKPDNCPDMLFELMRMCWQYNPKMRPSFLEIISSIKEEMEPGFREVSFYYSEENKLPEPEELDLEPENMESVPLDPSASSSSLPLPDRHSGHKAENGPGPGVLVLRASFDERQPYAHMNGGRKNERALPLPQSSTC

MARK4(h) = target: T6, MARK4(h) (Homo sapiens, UniProt Q96L34)
T6 construct: purchased Eurofins (KinaseProfiler)
T6 sequence (Q96L34 1-752): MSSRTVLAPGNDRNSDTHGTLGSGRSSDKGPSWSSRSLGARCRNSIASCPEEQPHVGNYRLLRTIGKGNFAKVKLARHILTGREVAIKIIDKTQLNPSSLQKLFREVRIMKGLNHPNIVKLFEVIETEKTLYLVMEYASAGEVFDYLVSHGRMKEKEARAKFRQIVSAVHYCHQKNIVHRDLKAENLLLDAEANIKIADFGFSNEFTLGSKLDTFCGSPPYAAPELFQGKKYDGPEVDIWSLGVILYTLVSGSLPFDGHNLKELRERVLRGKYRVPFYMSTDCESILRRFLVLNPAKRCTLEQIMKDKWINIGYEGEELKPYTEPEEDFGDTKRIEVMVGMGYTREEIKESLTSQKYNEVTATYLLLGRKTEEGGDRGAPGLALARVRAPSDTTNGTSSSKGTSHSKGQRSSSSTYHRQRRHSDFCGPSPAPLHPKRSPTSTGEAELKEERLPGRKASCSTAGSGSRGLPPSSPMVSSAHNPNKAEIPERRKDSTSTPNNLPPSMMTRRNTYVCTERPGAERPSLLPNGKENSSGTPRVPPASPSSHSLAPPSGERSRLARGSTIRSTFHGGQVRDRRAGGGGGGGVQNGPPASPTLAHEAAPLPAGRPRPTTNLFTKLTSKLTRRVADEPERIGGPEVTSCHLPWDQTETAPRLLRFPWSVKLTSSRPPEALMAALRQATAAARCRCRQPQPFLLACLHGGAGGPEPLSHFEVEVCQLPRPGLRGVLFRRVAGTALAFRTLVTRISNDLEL

## COc1cc(OC)c(Cl)c(-c2ccc3c(NC(=O)c4ccc(N5CCNC(C)(C)C5)cc4)n[nH]c3n2)c1Cl [3D185]
MRCKβ(h); 10 nM
  inhibition at 0.01 µM: 18%
MRCKβ(h); 100 nM
  inhibition at 0.1 µM: 8%
MRCKβ(h); 1000 nM
  inhibition at 1 µM: 21%
TTK(h); 10 nM
  inhibition at 0.01 µM: 5%
TTK(h); 100 nM
  inhibition at 0.1 µM: -2%
TTK(h); 1000 nM
  inhibition at 1 µM: 12%
MRCKα(h); 10 nM
  inhibition at 0.01 µM: 12%
MRCKα(h); 100 nM
  inhibition at 0.1 µM: 16%
MRCKα(h); 1000 nM
  inhibition at 1 µM: 14%
IRAK4(h); 10 nM
  inhibition at 0.01 µM: -2%
IRAK4(h); 100 nM
  inhibition at 0.1 µM: -2%
IRAK4(h); 1000 nM
  inhibition at 1 µM: -4%
IGF-1R(h), activated; 10 nM
  inhibition at 0.01 µM: -12%
IGF-1R(h), activated; 100 nM
  inhibition at 0.1 µM: 6%
IGF-1R(h), activated; 1000 nM
  inhibition at 1 µM: 49%
MARK4(h); 10 nM
  inhibition at 0.01 µM: 3%
MARK4(h); 100 nM
  inhibition at 0.1 µM: 5%
MARK4(h); 1000 nM
  inhibition at 1 µM: -2%
